Measurements reported in patent US20110293545A1, “Dolichos Biflorus Extract For Use In Cosmetic Skin Treatment” (Cognis IP Management GmbH, priority 2009, published 2011).

Columns and labels:
Format in all cases: cell-based
collagen I = assay: Stimulation of collagen I production (ELISA of released collagen peptides, Bradford cell proteins); settings: dose 20 μg/ml; 72 hours; human dermal fibroblasts
Method: The purpose of this assay was the evaluation of the potential of Dolichos biflorus seed extract to increase the level of collagen I. Human dermal fibroblasts (from skin of aesthetic surgery) were cultivated in growth medium (DMEM Invitrogen N° 41965-039 with FCS at 10% (v/v)) for 24 hours at 37° C. […] The amount of cellular proteins was determined on cell homogenate (in a solution of NaOH 0.1 N) by the Bradford's method. The quantity of synthesized type I collagen was determined by measuring the amount of released collagen peptides in cell culture medium by an ELISA method (kit […]° from Osteomedical). They are expressed in % protein referring to the control (=standard medium with cells).

COL5A2 = assay: qRT-PCR of collagen V encoding gene COL5A2 in human dermal fibroblasts; settings: 10 ng/ml, with carrier protein; 24 h incubation; relative to EF1α
Method: (§1) This test was performed to evaluate the stimulation efficacy of a Dolichos biflorus extract according to example 3 on the expression of collagen V encoding genes in human fibroblasts. As 2 genes are responsible of the production of collagen V, namely the genes COL5A1 and COL5A2, both gene expressions were analysed.
(§2) Human dermal fibroblasts (obtained from plastic surgery) were inoculated in standard DMEM medium of cell culture with 10% FCS (Invitrogen). When cell confluence was arisen, the substances to be tested were introduced in new DMEM without FCS. Fibroblasts were incubated during 24 h with the test substances, then total RNA was extracted using a commercial extraction kit (Nucleospin™ RNA II, Macherey-Nagel™, France). Quantification and quality control of total RNA were performed by measuring […] at 260 and 280 nm. […]
(§3) The reverse transcription step was performed with a reverse transcription (RT) kit (ThermoScript™ RT-PCR System, Invitrogen, France) using 0.1 μg of total RNA in a 20 μl final volume. The quantitative PCRs were performed on 2 μl of the RT mix with specific primers in a 20 μl final volume, according to the manufacturer's informations (LightCycler®480 SYBR Green I Master, Roche, France). […] Results, expressed as percentage RNA compared to the control, are the mean of three independent assays (table 3). […]

COL5A1 = assay: qRT-PCR of collagen V encoding gene COL5A1 in human dermal fibroblasts; settings: 10 ng/ml, with carrier protein; 24 h incubation; relative to EF1α
Method: as §1, §2, §3

Row | Compound | Cell proteins (collagen I) [% protein against control] | Released type I collagen (collagen I) [% protein against control] | RNA level of COL5A2 (COL5A2) [%/control] | RNA level of COL5A1 (COL5A1) [%/control]
1 | O=C1O[C@H]([C@@H](O)CO)C(O)=C1O [Vitamin C] | 77.3 | 118.3 | – | –
2 | TGF-β1: growth factor, positive reference; strong transcription activator of collagen genes; added with a carrier protein | – | – | 171 | 567
